Data reported in US6221865A, “Inhibitors of protein isoprenyl transferases” (priority 1998, dated 2001).
Structures can show the parent of a compound that is named as a salt. Blank lines part the entries; values can stand above or below the molecule they belong to.

Target: T1, protein farnesyltransferase (Rattus norvegicus, UniProt Q02293+Q04631)
T1 construct: The enzyme is purified according to Reiss, Y., et al., Cell, 62: 81-88 (1990), utilizing steps one through three; from tissue; host or cells: rat brain
Test: Inhibition of farnesyltransferase (scintillation proximity assay, rat brain enzyme, biotin-K Ras B fragment substrate)
Type: biochemical
Conditions: for % inhibition of farnesyltransferase at 1 × 10^-8 M: 1 × 10^-8 M (Table 4); for % inhibition of farnesyltransferase at 1 × 10^-6 M / inhibition at 1 µM: 1 × 10^-6 M (Table 2); for % inhibition of farnesyltransferase at 1 × 10^-7 M / inhibition at 0.1 µM: 1 × 10^-7 M (Table 3); for inhibition at 1 µM: read-out: % inhibition of farnesyltransferase at 1 × 10^-6 M; for % inhibition of farnesyltransferase at 1 × 10^-5 M: 1 × 10^-5 M (Table 1); for inhibition at 0.1 µM: read-out: % inhibition of farnesyltransferase at 1 × 10^-7 M
How it was run: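 Enzyme from rat brain, partly purified (steps one to three), assayed by SPA kit using 0.1 mM final biotin-K Ras B peptide as prenyl acceptor rather than biotin-lamin. Activity given as percent inhibition.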

T1 sequence (Q02293 whole entry, one chain of several): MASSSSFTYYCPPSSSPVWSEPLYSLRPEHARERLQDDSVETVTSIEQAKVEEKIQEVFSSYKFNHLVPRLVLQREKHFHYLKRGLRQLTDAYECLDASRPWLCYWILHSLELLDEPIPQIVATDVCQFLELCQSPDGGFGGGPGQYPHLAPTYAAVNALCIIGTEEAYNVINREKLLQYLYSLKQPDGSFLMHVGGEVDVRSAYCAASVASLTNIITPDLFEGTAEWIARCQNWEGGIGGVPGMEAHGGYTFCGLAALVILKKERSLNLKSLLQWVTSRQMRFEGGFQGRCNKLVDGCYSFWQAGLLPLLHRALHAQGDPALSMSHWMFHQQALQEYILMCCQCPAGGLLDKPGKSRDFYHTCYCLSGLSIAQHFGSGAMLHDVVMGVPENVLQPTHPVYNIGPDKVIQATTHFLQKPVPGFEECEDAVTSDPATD

% inhibition of farnesyltransferase at 1 × 10^-8 M: 85%
SMILES: CSCC[C@H](NC(=O)c1ccc(CN(Cc2ccccc2)c2cccc(C(C)=O)c2)cc1-c1ccccc1C)C(=O)O [Example 845]

% inhibition of farnesyltransferase at 1 × 10^-6 M: 18%
SMILES: CSCC[C@H](NC(=O)c1ccc(NC(=O)Cc2nccs2)cc1-c1ccccc1)C(=O)O [Example 163]

SMILES: CSCC[C@H](NC(=O)c1ccc(COCc2cc3ccccc3o2)cc1-c1ccccc1C)C(=O)[O-].[Li+] [Example 533]
% inhibition of farnesyltransferase at 1 × 10^-7 M: 91%

% inhibition of farnesyltransferase at 1 × 10^-6 M: 35%
SMILES: COc1ccc(CNCc2ccc(C(=O)N[C@@H](CCSC)C(=O)O)c(-c3ccccc3)c2)c(OC)c1 [Example 655]

SMILES: CCCCN(CC1CCCCC1)OCc1ccc(C(=O)N[C@@H](CCSC)C(=O)O)c(-c2ccccc2C)c1 [Example 1186]
inhibition at 0.01 µM (read-out: % inhibition at 0.01 μM (**), Table 6, ** = 0.01 μM (footnote), title prints 0.01 mM): 93%

SMILES: CSCC[C@H](NC(=O)c1ccc(CC(Cc2ccccc2)c2ccccc2)cc1-c1ccccc1C)C(=O)O (stereo partly shown) [Example 572, N-[4-(2,3-diphenylpropan-1-yl)-2-(2-methylphenyl)benzoyl]methionine lithium salt]
inhibition at 1 µM: 91%

% inhibition of farnesyltransferase at 1 × 10^-6 M: 92%
SMILES: COC(=O)[C@H](CCSC)NC(=O)c1ccc(NC(=O)[C@@H]2CSCN2)cc1-c1ccccc1.Cl [Example 164]

% inhibition of farnesyltransferase at 1 × 10^-5 M: 45%
SMILES: CSCC[C@H](NC(=O)c1ccc(CNc2cc(C(=O)O)cc(C(=O)O)c2)cc1-c1ccccc1)C(=O)O [Example 710]

inhibition at 1 µM: 26%
SMILES: CSCC[C@H](NC(=O)c1ccc(CN(C(C)C)C2(CC3CCCCC3)CCC2)cc1-c1ccccc1C)C(=O)O [Example 332]

SMILES: CSCC[C@H](NC(=O)c1ccc(CSCc2ccccc2C)cc1-c1ccccc1C)C(=O)[O-].[Li+] [Example 557]
% inhibition of farnesyltransferase at 1 × 10^-6 M: 93%

% inhibition of farnesyltransferase at 1 × 10^-5 M: 97%
SMILES: CSCC[C@H](NC(=O)c1ccc(CNCCN2CCOCC2)cc1-c1ccccc1)C(=O)O [Example 365]

SMILES: CSCC[C@H](NC(=O)c1ccc(COCc2ccc(-c3cccc([N+](=O)[O-])c3)o2)cc1-c1ccccc1C)C(=O)[O-].[Li+] [Example 440]
% inhibition of farnesyltransferase at 1 × 10^-7 M: 92%

% inhibition of farnesyltransferase at 1 × 10^-6 M: 94%
SMILES: CSCC[C@H](NC(=O)c1ccc(Sc2ccc3ccccc3c2)cc1-c1ccccc1C)C(=O)O [Example 497]

SMILES: CSCC[C@H](NC(=O)c1ccc(C=Cc2cncs2)cc1-c1ccccc1C)C(=O)O [Example 785, N-[4-(2-(thiazol-5-yl)ethen-1-yl)-2-(2-methylphenyl)benzoyl]methionine lithium salt]
inhibition at 0.1 µM: 96%

% inhibition of farnesyltransferase at 1 × 10^-6 M: 95%
SMILES: CSCC[C@H](NC(=O)c1ccc(CN(CCCc2ccccc2)c2ccccc2)cc1-c1ccccc1C)C(=O)O [Example 508]

% inhibition of farnesyltransferase at 1 × 10^-7 M: 97%
SMILES: CSCC[C@H](NC(=O)c1ccc(CNC(Cc2ccccc2)Cc2ccccc2)cc1-c1ccccc1C)C(=O)O [Example 523]

% inhibition of farnesyltransferase at 1 × 10^-6 M: 45%
SMILES: CSCC[C@H](NC(=O)c1ccc(CNCC(O)c2cccc(O)c2)cc1-c1ccccc1)C(=O)O (stereo partly shown) [Example 661]

% inhibition of farnesyltransferase at 1 × 10^-7 M: 96%
SMILES: CSCC[C@H](NC(=O)c1ccc(CN[C@H](/C=C\CC(C)C)CC2CCCCC2)cc1-c1ccccc1C)C(=O)O [Example 526]

inhibition at 1 µM: 99%
SMILES: Cc1ccccc1-c1cc(CN(C2CC2)C2(Cc3ccccc3)CCC2)ccc1C(=O)N[C@@H](CCS(C)(=O)=O)C(=O)O [Example 333]

SMILES: CSCC[C@H](NC(=O)c1ccc(COCc2ccc(-c3ccccc3C(F)(F)F)o2)cc1-c1ccccc1C)C(=O)[O-].[Li+] [Example 438]
% inhibition of farnesyltransferase at 1 × 10^-7 M: 90%

% inhibition of farnesyltransferase at 1 × 10^-8 M: 91%
SMILES: CSCC[C@H](NC(=O)c1ccc(CO[C@H](CSC(C)(C)C)CC2CCCCC2)cc1-c1ccccc1C)C(=O)O [Example 883]

% inhibition of farnesyltransferase at 1 × 10^-6 M: 95%
SMILES: CSCC[C@H](NC(=O)c1ccc(CN(Cc2ccccc2)c2ccccc2)cc1-c1ccccc1C)C(=O)O [Example 406]

inhibition at 1 µM: 92%
SMILES: CSCC[C@H](NC(=O)c1ccc(/C=C/CC(O)c2ccc3ccccc3c2)cc1-c1ccccc1C)C(=O)O (stereo partly shown) [Example 474, N-[4-(4-naphth-2-ylbut-4-ol-1-enyl)-2-(2-methylphenyl)benzoyl]methionine]

SMILES: CCCCC(CCCC)OCc1ccc(C(=O)N[C@@H](CCSC)C(=O)[O-])c(-c2ccccc2C)c1.[Li+] [Example 942]
% inhibition of farnesyltransferase at 1 × 10^-8 M: 58%

% inhibition of farnesyltransferase at 1 × 10^-8 M: 92%
SMILES: CSCC[C@H](NC(=O)c1ccc(CN(Cc2ccc3c(c2)OCO3)c2cnccn2)cc1-c1ccccc1C)C(=O)O [Example 838]

% inhibition of farnesyltransferase at 1 × 10^-8 M: 73%
SMILES: COc1ccc(N(Cc2ccccc2)Cc2ccc(C(=O)N[C@@H](CCSC)C(=O)O)c(-c3ccccc3C)c2)cc1 [Example 840]

% inhibition of farnesyltransferase at 1 × 10^-6 M: 99%
SMILES: CSCC[C@H](NC(=O)c1ccc(COCc2ccccc2)cc1-c1ccccc1C)C(=O)NS(=O)(=O)c1ccc(C)cc1 [Example 582]

% inhibition of farnesyltransferase at 1 × 10^-7 M: 96%
SMILES: CSCC[C@H](NC(=O)c1ccc(CN[C@H](CSc2ccccc2)CC2CCCCC2)cc1-c1ccccc1C)C(=O)O [Example 623]

% inhibition of farnesyltransferase at 1 × 10^-7 M: 80%
SMILES: CCSCC(CC1CCCCC1)N(Cc1ccc(C(=O)N[C@@H](CCSC)C(=O)O)c(-c2ccccc2C)c1)CC(C)C (stereo partly shown) [Example 945]

% inhibition of farnesyltransferase at 1 × 10^-6 M: 95%
SMILES: CSCC[C@H](NC(=O)c1ccc(COCC(CC2CCCCC2)CC2CCCCC2)cc1-c1ccccc1C)C(=O)O [Example 889]

% inhibition of farnesyltransferase at 1 × 10^-6 M: 21%
SMILES: CSCC[C@H](NC(=O)c1ccc(NCC(CO)(Cc2ccccc2)Cc2ccccc2)cc1-c1ccccc1C)C(=O)O [Example 475]

SMILES: CSCC[C@H](NC(=O)c1ccc(CCc2cccc(-c3ccccc3)c2)cc1-c1ccccc1C)C(=O)O [Example 793, N-[4-(2-(3-phenylphenyl)ethyl)-2-(2-methylphenyl)benzoyl]methionine lithium salt]
inhibition at 1 µM: 94%

% inhibition of farnesyltransferase at 1 × 10^-6 M: 34%
SMILES: CSCC[C@H](NC(=O)c1ccc(CNCCN2CCCC2)cc1-c1ccccc1)C(=O)O [Example 641]

% inhibition of farnesyltransferase at 1 × 10^-8 M: 85%
SMILES: CSCC[C@H](NC(=O)c1ccc(CN(Cc2ccccc2)c2ccc(C(F)(F)F)cc2)cc1-c1ccccc1C)C(=O)O [Example 853]

% inhibition of farnesyltransferase at 1 × 10^-8 M: 79%
SMILES: CSCC[C@H](NC(=O)c1ccc(CN(C)C(CC2CCCCC2)CC2CCCCC2)cc1-c1ccccc1C)C(=O)O [Example 907]

SMILES: CSCC[C@H](NC(=O)c1ccc(C#Cc2cncnc2)cc1-c1ccccc1C)C(=O)O [Example 493, N-[4-(2-pyrimidin-5-ylethynyl)-2-(2-methylphenyl)benzoyl]methionine lithium salt]
inhibition at 0.1 µM: 51%

SMILES: CSCC[C@H](NC(=O)c1ccc(COCCc2ccc(Cl)cc2)cc1-c1ccccc1C)C(=O)[O-].[Li+] [Example 590]
% inhibition of farnesyltransferase at 1 × 10^-7 M: 95%

inhibition at 0.1 µM: 92%
SMILES: CSCC[C@H](NC(=O)c1ccc(CCc2ccc(Oc3ccccc3Cl)cc2)cc1-c1ccccc1C)C(=O)O [Example 855, N-[4-(2-(4-(2-chlorophenoxy)phenyl)ethyl)-2-(2-methylphenyl)benzoyl]methionine]

% inhibition of farnesyltransferase at 1 × 10^-6 M: 65%
SMILES: CSCC[C@H](NC(=O)c1ccc(CN(C(CC2CCCCC2)CC2CCCCC2)S(=O)(=O)c2ccccc2)cc1-c1ccccc1C)C(=O)O [Example 911]

% inhibition of farnesyltransferase at 1 × 10^-6 M: 84%
SMILES: CNCC(=O)Nc1ccc(C(=O)N[C@@H](CCSC)C(=O)O)c(-c2ccccc2)c1 [Example 749]
